Test results published in publication PMC12470768, “Mentha rotundifolia, a Source of Amoebicidal Agents Against Naegleria fowleri” (International Journal of Molecular Sciences, 2025).

Key:
[1] = tested on: N. fowleri ATCC® 30808™ trophozoites; assay: In vitro amoebicidal activity against N. fowleri trophozoites (alamarBlue), strain ATCC 30808; format: cell-based, Naegleria fowleri; details: for IC50 / N. fowleri ATCC 30808 IC50: mean ± SD; for N. fowleri ATCC 30808 SI (CC50/IC50): selectivity index vs murine macrophages J774
Method: (§1) The in vitro activity of the tested compounds against Naegleria fowleri trophozoites was evaluated using two clinical strains obtained from the American Type Culture Collection (ATCC® 30808™ and ATCC® 30215™). Trophozoites were cultured axenically at 37 °C in 2% (w/v) Bactocasitone medium (Thermo Fisher Scientific, Madrid, Spain), supplemented with 10% (v/v) fetal bovine serum (FBS), […] penicillin G sodium salt, and 0.5 mg/mL streptomycin sulfate (Sigma-Aldrich, Madrid, Spain). For cytotoxicity assessment, murine macrophages from the J774A.1 cell line (ATCC® TIB-67) were cultured in Dulbecco’s Modified Eagle’s Medium (DMEM) supplemented with 10% (v/v) FBS and 10 μg/mL gentamicin sulfate (Sigma-Aldrich, Madrid, Spain). The macrophages were maintained at 37 °C in a 5% CO2 atmosphere.
(§2) The trophocidal activity of the compounds was evaluated using the alamarBlue® colorimetric assay. N. fowleri trophozoites were seeded in duplicate in a 96-well microtiter plate at a concentration of 2 × 10^5 cells/mL and incubated for adhesion in Bactocasitone medium (2% v/w) (Thermo Fisher Scientific, Madrid, Spain), supplemented with 10% (v/v) fetal bovine serum (FBS), 0.3% penicillin G sodium salt, and 0.5 mg/mL streptomycin sulfate (Sigma-Aldrich, Madrid, Spain). Different concentrations of the evaluated compounds, prepared in fresh Bactocasitone medium, were added to the wells (50 µL per well). The negative control consisted of trophozoites incubated with the medium alone. After adding 10 µL of alamarBlue® reagent, the plates were incubated at 37 °C for 48 h with slight agitation. The data were analyzed using nonlinear regression with GraphPad Prism 9 software to determine the IC50 and IC90 values, which were then used for further studies on PCD [10].

[2] = tested on: N. fowleri ATCC® 30215™ trophozoites; assay: In vitro amoebicidal activity against N. fowleri trophozoites (alamarBlue), strain ATCC 30215; format: cell-based, Naegleria fowleri; details: trophozoite stage; for IC50: Naegleria fowleri, ATCC30215, 48 h, mean ± SD; for N. fowleri ATCC 30215 SI (CC50/IC50): selectivity index vs murine macrophages J774
Method: as §1, §2

[3] = tested on: N. fowleri ATCC® 30808™ cyst stage; assay: In vitro cysticidal activity against N. fowleri cysts (alamarBlue), strain ATCC 30808; format: cell-based, Naegleria fowleri; details: for IC50: Naegleria fowleri, ATCC30808, mean ± SD
Method: (§3) Following the assays against trophozoites, the compounds were further evaluated for their activity against the cyst stage of N. fowleri (ATCC® 30808™ and ATCC® 30215™). To induce cyst formation, the trophozoites were centrifuged, resuspended in MYAS medium, and incubated under slight agitation at room temperature for 10 days. After this, mature cysts were harvested, pretreated with 0.5% SDS, and seeded in a 96-well microtiter plate at 2 × 10^5 cells/mL. The drugs were tested in serial dilutions, and after 24 h of incubation at 37 °C, the medium was replaced with fresh Bactocasitone medium. The colorimetric alamarBlue® assay was used to assess cyst viability, with 10 µL of reagent added to each well. The plates were incubated for an additional 72 h at 37 °C, and fluorescence was measured using the EnSpire® Multimode Plate Reader (PerkinElmer, Madrid, Spain). The results were compared to a negative control (untreated cysts) and a positive control (amphotericin B and miltefosine). The IC50 values were determined through nonlinear regression analysis.

[4] = tested on: N. fowleri ATCC® 30215™ cyst stage; assay: In vitro cysticidal activity against N. fowleri cysts (alamarBlue), strain ATCC 30215; format: cell-based; details: Naegleria fowleri, ATCC30215, mean ± SD
Method: as §3

[5] = In vitro cytotoxicity on murine macrophages (alamarBlue); format: cell-based; details: mouse, J774A.1 murine macrophage cell line (ATCC TIB-67), mean ± SD
Method: as §1
The cytotoxicity of the compounds was assessed against the murine macrophage cell line J774A.1 (ATCC® TIB-67™). Cells were maintained at 37 °C in a 5% CO2 atmosphere in DMEM medium. In the assay, different concentrations of the compounds were added to the cells in a 96-well microtiter plate, and after 24 h of incubation, 10 µL of alamarBlue® reagent was added. The fluorescence intensity was measured using the EnSpire® Multimode Plate Reader (PerkinElmer, Madrid, Spain). The cytotoxic concentration required to reduce cell viability by 50% (CC50) was determined through nonlinear regression analysis using GraphPad Prism 9 software. The results were compared with those obtained against trophozoites to calculate the selectivity index (S.I.) for N. fowleri.

N. fowleri trophozoites [6] = assay: Chromatin condensation (Hoechst 33342 / propidium iodide staining); format: cell-based, Naegleria fowleri; details: IC90, 24 h; for chromatin condensation (Hoechst 33342 fluorescence): compound 7 on ATCC 30808, compound 10 on ATCC 30215, amphotericin B on both
Method: (§4) To evaluate the induction of PCD, N. fowleri strains ATCC® 30808™ and ATCC® 30215™ were treated with the IC90 concentration of the compounds 7 and 10 for 24 h at 37 °C. After incubation, specific fluorescent markers were used to assess various detectable metabolic events, following the manufacturers’ instructions for each assay. Amphotericin B was used as a positive control, and untreated amoebae served as a negative control. Fluorescence imaging was performed using EVOS M5000 Cell Imaging System (Life Technologies, Madrid, Spain) and confocal microscope Leica DMI 4000 B equipped with Leica Application Suite X software version 3.5.5.19976 and Leica HC PL APO 63x/1.40 OIL CS2 objective (Leica Microsystems, Wetzlar, Germany). The fluorescence obtained was expressed as mean ± standard deviation from at least three independent experiments.
To evaluate the chromatin condensation, cells were stained with Hoechst 33,342 (1 µM) and propidium iodide (PI) (1 µM) for 20 min in the dark. Hoechst 33,342 binds to condensed chromatin in apoptotic cells and emits blue fluorescence, while PI enters cells with compromised membranes, indicative of late apoptosis or necrosis, and binds to DNA, emitting red fluorescence. […] Untreated cells were included as negative controls to establish baseline fluorescence levels.

N. fowleri trophozoites [7] = assay: Plasma membrane permeability (SYTOX Green); format: cell-based, Naegleria fowleri; details: IC90, 24 h; compound 7 on ATCC 30808, compound 10 on ATCC 30215, amphotericin B on both
Method: as §4
After treatment, SYTOX™ Green nucleic acid stain (Life Technologies, Madrid, Spain) was added to each well at a final concentration of 1 μg/mL and incubated for 15 min in the dark. […] In contrast, viable cells with intact membranes exclude the dye and remain non-fluorescent. Untreated trophozoites were used as negative controls.

N. fowleri trophozoites [8] = assay: Intracellular ATP levels (CellTiter-Glo); format: cell-based, Naegleria fowleri; details: treated with IC90, 24 h; negative control set as 100% ATP
Method: as §4
Adenosine triphosphate (ATP) production was quantified using the CellTiter-Glo® luminescent cell viability assay (Promega, Madrid, Spain). Amoebae were treated with the compounds, and an equal volume of reagent was added per well. Following cell lysis, the emitted luminescence, which is directly proportional to ATP content, was measured using the EnSpire® Multimode Plate Reader (PerkinElmer, Madrid, Spain). […]

N. fowleri trophozoites [9] = assay: Mitochondrial membrane potential (JC-1); format: cell-based, Naegleria fowleri; details: IC90, 24 h; compound 7 on ATCC 30808, compound 10 on ATCC 30215
Method: as §4
Mitochondrial membrane potential (ΔΨm) was assessed using the JC-1 dye (1,1′,3,3′-tetraethyl-5,5′,6,6′-tetrachloroimidacarbocyanine iodide; Cayman Chemical, Madrid); following treatment, cells were harvested by centrifugation at 2500 rpm for 10 min and resuspended in JC-1 assay buffer. […] In cells with depolarized mitochondria, JC-1 remains in its monomeric form, emitting green fluorescence (emission at ~535 nm), indicating mitochondrial damage and a loss of ΔΨm.

N. fowleri trophozoites [10] = assay: Intracellular reactive oxygen species (CellROX Deep Red); format: cell-based, Naegleria fowleri; details: IC90, 24 h; compound 7 on ATCC 30808 (p < 0.05), compound 10 on ATCC 30215 (p < 0.01)
Method: as §4
The oxidative stress induced by the generation of ROS in N. fowleri was evaluated using the CellROX® Deep Red reagent (Invitrogen, Thermo Fisher Scientific, Madrid, Spain). Following incubation, cells were stained with the dye at a final concentration of 5 μM and then incubated for an additional 30 min. The reagent enters cells in response to elevated ROS levels, emitting red fluorescence at approximately 644/665 nm. Increased fluorescence intensity indicated higher levels of ROS accumulation, reflecting elevated oxidative stress in the treated cells.

N. fowleri trophozoites [11] = assay: Autophagic vacuole formation (monodansylcadaverine); format: cell-based, Naegleria fowleri; details: IC90, 24 h
Method: as §4
Autophagy is a vital cellular process involved in the degradation and recycling of intracellular components, often activated in response to drug exposure. To evaluate autophagic activity, trophozoites were stained with monodansylcadaverine (MDC) (Sigma-Aldrich, St. Louis, MO, USA) during 30 min in the dark. […] The dye emits a characteristic cyan-blue fluorescence, allowing the detection and qualitative analysis of autophagic vacuoles in treated cells.

N. fowleri trophozoites [12] = assay: Cytoskeletal integrity (phalloidin-TRITC actin staining); format: cell-based, Naegleria fowleri; details: IC90; compound 7 on ATCC 30808, compound 10 on ATCC 30215
Method: as §4
Cytoskeletal disruption in treated amoebae was evaluated by staining with phalloidin conjugated to tetramethylrhodamine B isothiocyanate (phalloidin- TRITC), which binds specifically to filamentous actin, emitting red fluorescence. DAPI staining was used in parallel to visualize nuclear DNA, emitting blue fluorescence. […] Following washing with PBS, fluorescence images were captured with a 63x oil immersion objective.

[13] = Naegleria fowleri, ATCC30808, 48 h, trophozoite stage, 48 h
[14] = Naegleria fowleri, ATCC30808, trophozoites, extracts, fractions, subfractions, isolated compound and reference drugs

Structure (SMILES) | IC50 [1, 13] [µM] | IC50 [1, 14] [µg/mL] | N. fowleri ATCC 30808 SI (CC50/IC50) ([1]; trophozoite stage) | N. fowleri ATCC 30808 IC50 ([1]; trophozoites, extracts, fractions, subfractions, isolated compound and reference drugs, listed as A) [µg/mL] | IC50 [2] [µM] | N. fowleri ATCC 30215 SI (CC50/IC50) [2] | IC50 [3] [µM] | IC50 [4] [µM] | CC50 at 24 h [5] [µM] | chromatin condensation (Hoechst 33342 fluorescence) (N. fowleri trophozoites [6]) | plasma membrane integrity (SYTOX Green fluorescence) (N. fowleri trophozoites [7]) | N. fowleri ATCC 30808 IC50 ([1]; trophozoites, extracts, fractions, subfractions, isolated compound and reference drugs, listed as UA (1)) [µg/mL] | IC90 ([1]; Naegleria fowleri, ATCC30808, trophozoites, compound 7 used on ATCC 30808 (Figure 8 legend)) [µM] | N. fowleri ATCC 30808 SI (CC50/IC50), cyst stage ([3]; selectivity index vs murine macrophages J774) | inhibition of ATP levels compared to the negative control (N. fowleri trophozoites [8]) [%] | propidium iodide (red) fluorescence (N. fowleri trophozoites [6]; compound 7 on ATCC 30808) | mitochondrial membrane potential (JC-1) (N. fowleri trophozoites [9]) | intracellular ROS accumulation (CellROX Deep Red) (N. fowleri trophozoites [10]) | autophagic vesicles (MDC staining) (N. fowleri trophozoites [11]) | actin cytoskeleton (phalloidin-TRITC) (N. fowleri trophozoites [12])
C[C@@H]1[C@H](O)[C@@H](C)/C=C/C=C/C=C/C=C/C=C/C=C/C=C/[C@H](O[C@@H]2O[C@H](C)[C@@H](O)[C@H](N)[C@@H]2O)C[C@@H]2O[C@](O)(C[C@@H](O)C[C@@H](O)[C@H](O)CC[C@@H](O)C[C@@H](O)CC(=O)O[C@H]1C)C[C@H](O)[C@H]2C(=O)O [Amphotericin B, reference compound] | 0.12 ± 0.03 | 0.18 | >1650.89 | 0.162 ± 0.002 | 0.16 ± 0.01 | >1250 | 0.53 ± 0.03 | 0.62 ± 0.04 | > 200 | clear chromatin condensation | bright green fluorescence |  |  |  |  |  |  |  |  | 
C[C@H]1[C@H](C)CC[C@]2(C(=O)O)CC[C@]3(C)C(=CC[C@@H]4[C@@]5(C)CC[C@H](O)C(C)(C)[C@@H]5CC[C@]43C)[C@H]12 [Compound 1, ursolic acid] | 142 ± 8.17 | 65.9 |  |  | 82.5 ± 8.43 | 0.43 |  |  | 35.9 ± 9.28 |  |  | 65.91 ± 3.73 |  |  |  |  |  |  |  | 
COC(=O)[C@]12CC[C@@H](C)[C@H](C)[C@H]1C1=CC[C@@H]3[C@@]4(C)CC[C@H](O)C(C)(C)[C@@H]4CC[C@@]3(C)[C@]1(C)CC2 [Compound 2, methyl ursolate] | 88.7 ± 3.02 |  | 1.12 |  | 84.5 ± 6.31 |  |  |  | 49.6 ± 5.65 |  |  |  |  |  |  |  |  |  |  | 
COC(=O)[C@]12CC[C@@H](C)[C@H](C)C1C1=CCC3[C@@]4(C)CC[C@H](OC(=O)CCC(=O)O)C(C)(C)C4CC[C@@]3(C)[C@]1(C)CC2 (stereo partly drawn) [Compound 7, 3-O-(Hemisuccinyl)-methyl ursolate] | 28.7 ± 1.8 |  | >6.11 |  | 29.7 ± 1.59 | >5.90 | 36.6 ± 1.49 | 28 ± 1.59 | > 175 | clear chromatin condensation | significant membrane disruption |  | 39.5 | 4.78 | 89.5 | strong red fluorescence | marked decrease in mitochondrial membrane potential | significantly increased ROS | autophagosome formation | reduced actin signal intensity
COC(=O)[C@]12CC[C@@H](C)[C@H](C)C1C1=CCC3[C@@]4(C)CC[C@H](OC(=O)CCCC(=O)O)C(C)(C)C4CC[C@@]3(C)[C@]1(C)CC2 (stereo partly drawn) [Compound 8, 3-O-(Hemiglutaryl)-methyl ursolate] | 66.6 ± 9.25 |  | 1.24 |  | 38.7 ± 2.15 | 2.20 |  |  | 85 ± 5 |  |  |  |  |  |  |  |  |  |  | 
CCCCCCCCCCCCCCCCOP(=O)([O-])OCC[N+](C)(C)C [Miltefosine, reference compound] | 38.7 ± 4.23 | 12.7 ± 1.49 | 3.30 |  | 81.6 ± 7.23 | 1.57 | 21.5 ± 2.62 | 37.8 ± 5.6 | 128 ± 8.85 |  |  |  |  |  |  |  |  |  |  | 
